Experimental data taken from US8574563B2 (Bristol-Myers Squibb Company, priority 2006, dated 2013).

These molecules were tested on HCV 1b-377-neo replicon cells (assay: HCV replicon assay, HCV 1b-377-neo replicon cells (1b FRET)). Conditions: HCV 1b-377-neo replicon cells; HCV 1b genotype; read-out: EC50 range against HCV 1b (Table 2, Range).
Format: cell-based, Hepatitis C virus genotype 1b
Method in brief: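 Compounds were tested in genotype 1b subgenomic replicon cells carrying a neomycin marker, alongside a matched replicon line with an NS5A Y2065H substitution that confers resistance to a reference NS5A inhibitor.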

SMILES	EC50 [nM]
COC(=O)N[C@@H](C(=O)N1CCC[C@H]1c1ncc(-c2ccc(-c3ccc(-c4cnc([C@@H]5CCCN5C(=O)[C@H](OC)c5ccccc5)[nH]4)cc3)cc2)[nH]1)c1ccccc1 [Example 84-80, methyl ((1R)-2-((2S)-2-(5-(4′-(2-((2S)-1-((2R)-2-methoxy-2-phenylacetyl)-2-pyrrolidinyl)-1H-imidazol-5-yl)-4-biphenylyl)-1H-imdiazol-2-yl)-1-pyrrolidinyl)-2-oxo-1-phenylethyl)carbamate]	0.001 to 0.999

Same assay, conditions: Hepatitis C virus, HCV 1b-377-neo replicon cells; HCV 1b genotype; read-out: EC50 range against HCV 1b (Table 2, Range)

SMILES	EC50 [nM]
CCN(CC)[C@H]1CC[C@@H](C(=O)N2CCC[C@H]2c2ncc(-c3ccc(-c4ccc(-c5cnc([C@@H]6CCCN6C(=O)[C@H](C)NC(=O)OC)[nH]5)cc4)cc3)[nH]2)CC1 [cj-74, methyl ((1S)-2-((2S)-2-(5-(4′-(2-((2S)-1-((cis-4-(diethylamino)cyclohexyl)carbonyl)-2-pyrrolidinyl)-1H-imidazol-5-yl)-4-biphenylyl)-1H-imidazol-2-yl)-1-pyrrolidinyl)-1-methyl-2-oxoethyl)carbamate]	1 to 99
O=C(N[C@@H](C(=O)N1CCC[C@H]1c1ncc(-c2ccc(-c3ccc(-c4cnc([C@@H]5CCCN5C(=O)[C@@H]5CCCO5)[nH]4)cc3)cc2)[nH]1)c1ccccc1)[C@@H]1CCCO1 [Example 112, (2S)-N-((1R)-2-oxo-1-phenyl-2-((2S)-2-(5-(4′-(2-((2S)-1((2S)-tetrahydro-2-furanylcarbonyl)-2-pyrrolidinyl)-1H-imidazol-5-yl)-4-biphenylyl)-1H-imidazol-2-yl)-1-pyrrolidinyl)ethyl) tetrahydro-2-furancarboxamide]	0.001 to 0.999
COC(=O)N[C@@H](C(=O)N1CCC[C@H]1c1ncc(-c2ccc(-c3ccc(-c4cnc([C@@H]5CCCN5C(=O)N5CCN(C)CC5)[nH]4)cc3)cc2)[nH]1)c1ccccc1 [Example 29, methyl ((1R)-2-((2S)-2-(5-(4′-(2-((2S)-1-((4-methyl-1-piperazinyl)carbonyl)-2-pyrrolidinyl)-1H-imidazol-5-yl)-4-biphenylyl)-1H-imidazol-2-yl)-1-pyrrolidinyl)-2-oxo-1-phenylethyl)carbamate]	0.001 to 0.999
COC(=O)N[C@@H](C)C(=O)N1CCC[C@H]1c1ncc(-c2ccc(-c3ccc(-c4cnc([C@@H]5CCCN5[C@@](C)(C=O)NC(=O)OC)[nH]4)cc3)cc2)[nH]1 [Example M17, methyl ((1S)-1-((2S)-2-(5-(4′-(2-((2S)-1-(N-(methoxycarbonyl)-L-alanyl)-2-pyrrolidinyl)-1H-imidazol-5-yl)-4-biphenylyl)-1H-imidazol-2-yl)-1-pyrrolidinyl)-1-methyl-2-oxoethyl)carbamate]	100 to 999
COCC[C@H](NC(=O)OC)C(=O)N1CCC[C@H]1c1ncc(-c2ccc(-c3ccc(-c4cnc([C@@H]5CCCN5C(=O)[C@H]5CCC[C@@H]5NC(=O)OC)[nH]4)cc3)cc2)[nH]1 [cj-122, methyl ((1S,2S)-2-(((2S)-2-(5-(4′-(2-((2S)-1-(N-(methoxycarbonyl)-O-methyl-L-homoseryl)-2-pyrrolidinyl)-1H-imidazol-5-yl)-4-biphenylyl)-1H-imidazol-2-yl)-1-pyrrolidinyl)carbonyl)cyclopentyl)carbamate]	0.001 to 0.999
CCN(CC)[C@@H](C(=O)N1CCC[C@H]1c1ncc(-c2ccc(-c3ccc(-c4cnc([C@@H]5CCCN5C(=O)[C@H](NC(=O)OC)C5CC5)[nH]4)cc3)cc2)[nH]1)c1ccccc1 [Example M56, methyl ((1R)-1-cyclopropyl-2-((2S)-2-(5-(4′-(2-((2S)-1-((2R)-2-(diethylamino)-2-phenylacetyl)-2-pyrrolidinyl)-1H-imidazol-5-yl)-4-biphenylyl)-1H-imidazol-2-yl)-1-pyrrolidinyl)-2-oxoethyl)carbamate]	1 to 99
COC(=O)N[C@@H](C(=O)N1CCC[C@H]1c1ncc(-c2ccc(-c3ccc(-c4cnc([C@@H]5CCCN5C(=O)[C@@H]5CCCN5)[nH]4)cc3)cc2)[nH]1)c1ccccc1 [Example 80, methyl ((1R)-2-oxo-1-phenyl-2-((2S)-2-(5-(4′-(2-((2S)-1-L-prolyl-2-pyrrolidinyl)-1H-imidazol-5-yl)-4-biphenylyl)-1H-imidazol-2-yl)-1-pyrrolidinyl)ethyl)carbamate]	0.001 to 0.999
COc1ccc(-c2ccc(-c3cnc([C@@H]4CCCN4C(=O)[C@@H](c4ccccc4)N(C)C)[nH]3)cc2)cc1-c1c[nH]c([C@@H]2CCCN2C(=O)[C@@H](c2ccccc2)N(C)C)n1 [Example D33, (1R,1′R)-2,2′-((4-methoxy-3,4′-biphenyldiyl)bis(1H-imidazole-5,2-diyl(2S)-2,1-pyrrolidinediyl))bis (N,N-dimethyl-2-oxo-1-phenylethanamine)]	0.001 to 0.999
COCC[C@H](NC(=O)OC)C(=O)N1CCC[C@H]1c1ncc(-c2ccc(-c3ccc(-c4cnc([C@@H]5CCCN5C(=O)[C@@H](NC(=O)OC)[C@@H](C)OC)[nH]4)cc3)cc2)[nH]1 [cj-121, methyl ((1S,2R)-2-methoxy-1-(((2S)-2-(5-(4′-(2-((2S)-1-(N-(methoxycarbonyl)-O-methyl-L-homoseryl)-2-pyrrolidinyl)-1H-imidazol-5-yl)-4-biphenylyl)-1H-imidazol-2-yl)-1-pyrrolidinyl)carbonyl)propyl)carbamate]	0.001 to 0.999
COC(=O)N[C@H](CC(=O)N1CCC[C@H]1c1ncc(-c2ccc(-c3ccc(-c4cnc([C@@H]5CCCN5C(=O)C[C@@H](NC(=O)OC)c5ccccc5)[nH]4)cc3)cc2)[nH]1)c1ccccc1 [cj-128, methyl ((1R)-3-((2S)-2-(5-(4′-(2-(1-((3R)-3-((methoxycarbonyl)amino)-3-phenylpropanoyl)-2-pyrrolidinyl)-1H-imidazol-5-yl)-4-biphenylyl)-1H-imidazol-2-yl)-1-pyrrolidinyl)-3-oxo-1-phenylpropyl)carbamate]	0.001 to 0.999
COC(=O)N[C@H](C(=O)N1CCC[C@H]1c1ncc(-c2ccc(-c3ccc(-c4cnc([C@@H]5CCCN5C(=O)CNCc5ccccc5)[nH]4)cc3)cc2)[nH]1)C(C)C [LS22, methyl ((1S)-1-(((2S)-2-(5-(4′-(2-((2S)-1-(N-benzylglycyl)-2-pyrrolidinyl)-1H-imidazol-5-yl)-4-biphenylyl)-1H-imidazol-2-yl)-1-pyrrolidinyl)carbonyl)-2-methylpropyl)carbamate]	0.001 to 0.999
CN(C)[C@@H](C(=O)N1CCC[C@H]1c1ncc(-c2ccc(-c3ccc(-c4cnc([C@@H]5CCCN5C(=O)Cc5cnc[nH]5)[nH]4)cc3)cc2)[nH]1)c1ccccc1 [Example 94-50, (1R)-2-((2S)-2-(5-(4′-(2-((2S)-1-(1H-imidazol-5-ylacetyl)-2-pyrrolidinyl)-1H-imidazol-5-yl)-4-biphenylyl)-1H-imidazol-2-yl)-1-pyrrolidinyl)-N,N-dimethyl-2-oxo-1-phenylethanamine]	0.001 to 0.999
C[C@H](NC(=O)[C@@H](c1ccccc1)N(C)C)c1ncc(-c2ccc(-c3ccc(-c4cnc([C@@H]5CCCN5C(=O)[C@@H](c5ccccc5)N(C)C)[nH]4)nn3)cc2)[nH]1 [Example 152j-13, (2R)-2-(dimethylamino)-N-((1S)-1-(5-(4-(6-(2-((2S)-1-((2R)-2-(dimethylamino)-2-phenylacetyl)-2-pyrrolidinyl)-1H-imidazol-5-yl)-3-pyridazinyl)phenyl)-1H-imidazol-2-yl)ethyl)-2-phenylacetamide]	1 to 99
